Entries after “also recorded” stand apart in the source; their conditions may differ.

The text below walks through data of paper PMC7795425, “Synthesis and Biological Activity of Brassinosteroid Analogues with a Nitrogen-Containing Side Chain” (International Journal of Molecular Sciences, 2020).

Data set [1] has as its system T-lymphoblastic leukemia CEM. Further details: method as in PMID 17869317. The note with it: CEM cells; positive control; cited from earlier work.
For another data set, the system named is rice leaf lamina. Further details: method as in PMID 11674612. The note with it: all doses studied; cited from earlier work.
A short description of data set [2]: Calcein AM cytotoxicity assay, MCF7. The data set is classed as cell-based. The note with it: human, MCF7 breast carcinoma cells (estrogen-sensitive), MCF7, 72 h, IC50 > 50 µM means inactive, read-out: Cytotoxic activity IC50.
For data set [3], the system named is Arabidopsis thaliana L. (Columbia ecotype, Col-0) seedlings. In words: Arabidopsis root sensitivity bioassay. The note with it: for root length, mean: 7-day-old seedlings. The data set is classed as in vivo.
The nature of data set [4]: Calcein AM cytotoxicity assay, HeLa. In kind it is cell-based. The note with it: human, HeLa cervical carcinoma cells, IC50 > 50 µM means inactive, read-out: Cytotoxic activity IC50.
A short description of data set [5]: Calcein AM cytotoxicity assay, BJ. The note with it: human, BJ foreskin fibroblasts (normal cell line), IC50 > 50 µM means inactive, read-out: Cytotoxic activity IC50. In kind it is cell-based.
Data set [6] in a line: Calcein AM cytotoxicity assay, CEM. In kind it is cell-based. Particulars: human, CEM T-lymphoblastic leukemia cells, IC50 > 50 µM means inactive, read-out: Cytotoxic activity IC50.

With `CCC(C(C)C)C(O)C(O)C(C)C1CCC2C3CC(=O)C4CC(O)C(O)CC4(C)C3CCC12C` (centres unmarked) [28-Homocastasterone], the IC50 (as a rule, the concentration that inhibits the measured activity by half) in data set [1] was 13 µM.
For 25-azabrassinolide, the “biological activity in rice lamina inclination” value in the data set with rice leaf lamina was “completely inactive; also recorded: no biological activity”.
For `C[C@H]([C@@H](O)[C@H](O)C(=O)N(C)C)[C@H]1CC[C@H]2[C@@H]3CC(=O)[C@H]4C[C@H](O)[C@H](O)C[C@]4(C)[C@H]3CC[C@]12C` [20a, N,N-dimethyl-(20S,22R,23S)-2α,3α,22,23-tetrahydroxy-6-oxo-5α-cholan-24-amide], the melting point – broadly, the temperature of the solid-liquid transition – was > 210 °C (dec.). Further, in data set [2], the IC50 at 72 h is more than 50 µM. Also, the “root length, mean” value in data set [3] (0.1 nM, control 16.3 ± 1.21) is given as 16.13 mm. The “root length, mean” value in data set [3] (1 nM, control 16.3 ± 1.21) was determined as 14.67 mm. Besides, the “root length, mean” value in data set [3] (10 nM, control 16.3 ± 1.21) stood at 14.18 mm. Moreover, in data set [3] (100 nM (only selected compounds), control 14.61 ± 0.85), the “root length, mean” value turned out to be 15.192 mm. The “inhibitory effect on Arabidopsis root growth” value in data set [3] (tested 0.1 to 10 nM, selected derivatives also 100 nM) is recorded as “weak inhibitory effect”. Further, the IC50 at 72 h in data set [4] was more than 50 µM. Besides, in data set [5], the concentration for half-maximal inhibition (IC50) at 72 h is more than 50 µM. The IC50 at 72 h in data set [6] is more than 50 µM.
Take `C[C@H]([C@@H](O)[C@@H](O)CN1CCCC1)[C@H]1CC[C@H]2[C@@H]3CC(=O)[C@H]4C[C@H](O)[C@H](O)C[C@]4(C)[C@H]3CC[C@]12C.Cl` [22c, 1-((20S,22R,23S)-2α,3α,22,23-tetrahydroxy-6-oxo-5α-cholan-24-yl)pyrrolidinium chloride]: the melting point was > 250 °C (dec.). Further, the half-inhibitory concentration (IC50) at 72 h in data set [2] was more than 50 µM. For the same molecule, the “root length, mean” value in data set [3] (0.1 nM, control 16.3 ± 1.21) was determined as 15.97 mm. In addition, in data set [3] (1 nM, control 16.3 ± 1.21), the “root length, mean” value is 14.83 mm. Further, the “root length, mean” value in data set [3] (10 nM, control 16.3 ± 1.21) is 15.81 mm. Besides, the IC50 at 72 h in data set [4] was more than 50 µM. Besides, in data set [5], the 50% inhibitory concentration (IC50) at 72 h is more than 50 µM. In data set [6], the IC50 at 72 h was more than 50 µM.
